The test system of this assay is SU-DHL-4 cells. In words: Inhibitory effect on cell viability in SU-DHL-4 cell line (Test Example 1). Format: cell-based, human. The following applies: SU-DHL-4 cells, 72 hours, Cell Counting Kit-8, concentration showing 90% inhibition of cell viability, read-out: SU-DHL-4 Cell Viability Inhibition Rate IC90. As to the method: SU-DHL-4 cells (Code No. ACC 495, Deutsche Sammlung von Mikroorganismen and Zellkulturen GmbH; DSMZ) were cultured at 37° C. using a carbon dioxide incubator (95% air, 5% CO2) in RPMI1640 medium (Code No. 11875-093, Thermo Fisher Scientific) in which inactivated fetal bovine serum (FBS: Code No. 10099-148, Thermo Fisher Scientific) in an amount to give a final concentration of 10 vol % and penicillin/streptomycin solution (PS: […] The cells were passaged twice a week at a volume of 20-40 mL so as to maintain a cell concentration of 1×10^6 cells/mL or less. […] After seeding, the cells were precultured at 37° C. in a carbon dioxide gas incubator for 18 to 25 hours. […] At this time, the final concentration of DMSO was adjusted to be 0.1 vol %. After adding the test compound, the cells were cultured at 37° C. in a carbon dioxide gas incubator for 72 hours. Next, 0.020 mL of Cell Counting Kit-8 (Code No. CK04, DOJINDO) solution diluted 2-fold or 4-fold with phosphate buffered saline (PBS) was added to each well. Color reaction was carried out in a carbon dioxide gas incubator at 37° C. for 2 to 3 hours, and the absorbance at a wavelength of 450 nm was measured using SpectraMax 340PC (Molecular Devices). […] Absorbance of a well containing test compound • B: Absorbance of a well without addition of cells • C: Absorbance of a well without addition of test compound

Where two headings read alike, the source gives them in different places.

In general, IC90 refers to the point of the concentration-response curve where the effect stands at 90%.

Turning to `CCC(=O)N1c2ccccc2[C@H](Nc2ccc(NC(=O)CCCC(=O)Nc3ccc(Oc4ccccc4-c4cn(C)c(=O)cc4OC)cc3)cc2)C[C@@H]1C` [Compound 16k, N^1-(4-(2-(4-Methoxy-1-methyl-6-oxo-1,6-dihydropyridin-3-yl)phenoxy)phenyl)-N5-(4-(((2S,4R)-2-methyl-1-propionyl-1,2,3,4-tetrahydroquinolin-4-yl)amino)phenyl)glutaramide], the IC90 (Homo sapiens) was determined as 0.9 nM.
`CCC(=O)N1c2ccccc2[C@H](Nc2ccc(NC(=O)C3CN(C(=O)N[C@H]4CC[C@H](N[C@@H]5C[C@H](C)N(C(=O)CC)c6ccccc65)CC4)C3)cc2)C[C@@H]1C` [Compound 7c, N^1-((1R,4r)-4-(((2S,4R)-2-Methyl-1-propionyl-1,2,3,4-tetrahydroquinolin-4-yl)amino)cyclohexyl)-N^3-(4-(((2S,4R)-2-methyl-1-propionyl-1,2,3,4-tetrahydroquinolin-4-yl)amino)phenyl)azetidine-1,3-dicarboxamide]: the IC90 came to 7 nM.
The same measure, in the same setting: with `CCC(=O)N1c2ccccc2[C@H](Nc2ccc(C(=O)NC3CN(C(=O)C4CCC(N[C@@H]5C[C@H](C)N(C(=O)CC)c6ccccc65)CC4)C3)cc2)C[C@@H]1C` (relative stereo) [Compound 7n, 4-(((2S,4R)-2-Methyl-1-propionyl-1,2,3,4-tetrahydroquinolin-4-yl)amino)-N-(1-((1R,4R)-4-(((2S*,4R*)-2-methyl-1-propionyl-1,2,3,4-tetrahydroquinolin-4-yl)amino)cyclohexane-1-carbonyl)azetidin-3-yl)benzamide] the figure was 13.9 nM.
The same measure, in the same setting: with `CCC(=O)N1c2ccccc2[C@H](Nc2ccc(C(=O)c3cnc4n3CCN(C(=O)C3CCC(N[C@@H]5C[C@H](C)N(C(=O)CC)c6ccccc65)CC3)C4)cc2)C[C@@H]1C` (relative stereo) [Compound 7i, 1-((2S*,4R*)-2-Methyl-4-(((1r,4R)-4-(3-(4-(((2S,4R)-2-methyl-1-propionyl-1,2,3,4-tetrahydroquinolin-4-yl)amino)benzoyl)-5,6,7,8-tetrahydroimidazo[1,2-a]pyrazine-7-carbonyl)cyclohexyl)amino)-3,4-dihydroquinolin-1(2H)-yl)propan-1-one] the figure was 0.33 nM.
On the same count and under the same terms, the value for `CCC(=O)N1c2ccccc2[C@H](Nc2ccc(C(=O)NCC#CC(=O)NC3CCC(N[C@@H]4C[C@H](C)N(C(=O)CC)c5ccccc54)CC3)cc2)C[C@@H]1C` (stereo partly drawn) [Compound 8m, 4-(((2S,4R)-2-Methyl-1-propionyl-1,2,3,4-tetrahydroquinolin-4-yl)amino)-N-(4-(((1R,4r)-4-(((2S,4R)-2-methyl-1-propionyl-1,2,3,4-tetrahydroquinolin-4-yl)amino)cyclohexyl)amino)-4-oxobut-2-yn-1-yl)benzamide] was 0.11 nM; that for `CCC(=O)N1c2ccccc2[C@H](Nc2ccc(C(=O)NCC3(N[C@H]4CC[C@H](N[C@@H]5C[C@H](C)N(C(=O)CC)c6ccccc65)CC4)COC3)cc2)C[C@@H]1C` [Compound 7j, 4-(((2S,4R)-2-Methyl-1-propionyl-1,2,3,4-tetrahydroquinolin-4-yl)amino)-N-((3-(((1R,4R)-4-(((2S,4R)-2-methyl-1-propionyl-1,2,3,4-tetrahydroquinolin-4-yl)amino)cyclohexyl)amino)oxetan-3-yl)methyl)benzamide] was 64 nM.
In the case of `CCC(=O)N1c2ccccc2[C@H](Nc2ccc(NC(=O)NC3CN(C(=O)C4CCC(N[C@@H]5C[C@H](C)N(C(=O)CC)c6ccccc65)CC4)C3)cc2)C[C@@H]1C` (stereo partly drawn) [Compound 9h, 1-(1-((1R,4r)-4-(((2S,4R)-2-Methyl-1-propionyl-1,2,3,4-tetrahydroquinolin-4-yl)amino)cyclohexane-1-carbonyl)azetidin-3-yl)-3-(4-(((2S,4R)-2-methyl-1-propionyl-1,2,3,4-tetrahydroquinolin-4-yl)amino)phenyl)urea], the IC90 worked out at 7.16 nM.
Same read-out and setting: the value for `CCC(=O)N1c2ccccc2[C@H](Nc2ccc(C(=O)NCCCNC(=O)c3ccc(C4=NCc5nnc(C)n5-c5sc(C)c(C)c54)cc3)cc2)C[C@@H]1C` (relative stereo) [Compound 1f, 4-{[(2S*,4R*)-2-Methyl-1-propionyl-1,2,3,4-tetrahydroquinolin-4-yl]amino}-N-{3-[4-(2,3,9-trimethyl-6H-thieno[3,2-f][1,2,4]triazolo[4,3-a][1,4]diazepin-4-yl)benzamide]propyl}benzamide] was 4.78 nM; that for `CCC(=O)N1c2ccccc2[C@H](Nc2ccc(NC(=O)CCCC(=O)NC3CCC(Oc4ccc(NS(=O)(=O)CC)cc4-c4cn(C)c(=O)cc4OC)CC3)cc2)C[C@@H]1C` (stereo partly drawn) [Compound 16l, N^1-((1r,4r)-4-(4-(Ethylsulfonamide)-2-(4-methoxy-1-methyl-6-oxo-1,6-dihydropyridin-3-yl)phenoxy)cyclohexyl)-N5-(4-(((2S,4R)-2-methyl-1-propionyl-1,2,3,4-tetrahydroquinolin-4-yl)amino)phenyl)glutaramide] was 89.8 nM.
On the same count and under the same terms, with `CCC(=O)N1c2ccccc2[C@H](Nc2ccc(C(=O)NC3CCN(C(=O)c4ccc(C5=N[C@@H](CC(=O)OC(C)(C)C)c6nnc(C)n6-c6sc(C)c(C)c65)cc4)CC3)cc2)C[C@@H]1C` [Compound 13j, tert-Butyl 2-((S)-2,3,9-trimethyl-4-(4-(4-(4-(((2S,4R)-2-methyl-1-propionyl-1,2,3,4-tetrahydroquinolin-4-yl)amino)benzamide)piperidine-1-carbonyl)phenyl)-6H-thieno[3,2-f][1,2,4]triazolo[4,3-a][1,4]diazepin-6-yl)acetate] the figure was 0.31 nM.
Still for that read-out and setting: the value for `CCC(=O)N1c2ccccc2[C@H](Nc2ccc(C(=O)N3C[C@H]4C[C@@H]3CN4C(=O)[C@H]3CC[C@H](N[C@@H]4C[C@H](C)N(C(=O)CC)c5ccccc54)CC3)cc2)C[C@@H]1C` [Compound 8p, 1-((2S,4R)-2-Methyl-4-(((1R,4R)-4-((1R,4R)-5-(4-(((2S,4R)-2-methyl-1-propionyl-1,2,3,4-tetrahydroquinolin-4-yl)amino)benzoyl)-2,5-diazabicyclo[2.2.1]heptane-2-carbonyl)cyclohexyl)amino)-3,4-dihydroquinolin-1(2H)-yl)propan-1-one] was 15 nM; that for `CCC(=O)N1c2ccccc2[C@H](Nc2ccc(NC(=O)COCC(=O)NC3CCC(N[C@@H]4C[C@H](C)N(C(=O)CC)c5ccccc54)CC3)cc2)C[C@@H]1C` (stereo partly drawn) [Compound 8b, N-((1R,4r)-4-(((2S,4R)-2-Methyl-1-propionyl-1,2,3,4-tetrahydroquinolin-4-yl)amino)cyclohexyl)-2-(2-((4-(((2S,4R)-2-methyl-1-propionyl-1,2,3,4-tetrahydroquinolin-4-yl)amino)phenyl)amino)-2-oxyethoxy)acetamide] was 13.9 nM.
Turning to `CCC(=O)N1c2ccccc2[C@H](Nc2ccc(NC(=O)CCCC(=O)NC3CCN(Cc4ccccc4-c4cn(C)c(=O)cc4OC)CC3)cc2)C[C@@H]1C` [Compound 16h, N^1-(1-(2-(4-Methoxy-1-methyl-6-oxo-1,6-dihydropyridin-3-yl)benzyl)piperidin-4-yl)-N5-(4-(((2S,4R)-2-methyl-1-propionyl-1,2,3,4-tetrahydroquinolin-4-yl)amino)phenyl)glutaramide], the IC90 (Homo sapiens) worked out at 68.4 nM.
In the case of `CCC(=O)N1c2ccccc2[C@H](Nc2ccc(C(=O)c3cnc4n3CCN(C(=O)c3ccc(N[C@@H]5C[C@H](C)N(C(=O)CC)c6ccccc65)cc3)C4)cc2)C[C@@H]1C` [Compound 6f, 1,1′-((2S,2'S,4R,4R)-(((5,6,7,8-Tetrahydroimidazo[1,2-a]pyrazine-3,7-dicarbonyl)bis(4,1-phenylene))bis(azanediyl))bis(2-methyl-3,4-dihydroquinoline-4,1(2H)-diyl))bis(propan-1-one)], the IC90 is 0.11 nM.
For the molecule `CCC(=O)N1c2ccccc2[C@H](Nc2ccc(NC(=O)CCNS(=O)(=O)c3ccc(N[C@@H]4C[C@H](C)N(C(=O)CC)c5ccccc54)cc3)cc2)C[C@@H]1C` [Compound 6e, N-(4-(((2S,4R)-2-Methyl-1-propionyl-1,2,3,4-tetrahydroquinolin-4-yl)amino)phenyl)-3-((4-(((2S,4R)-2-methyl-1-propionyl-1,2,3,4-tetrahydroquinolin-4-yl)amino)phenyl)sulfonamide)propanamide], the IC90 was 4.31 nM.
Consider `CCC(=O)N1c2ccccc2[C@H](Nc2ccc(-c3cnn(C4CCN(C(=O)C5CCC(N[C@@H]6C[C@H](C)N(C(=O)CC)c7ccccc76)CC5)CC4)c3)cc2)C[C@@H]1C` (relative stereo) [Compound 8d, 1-((2S*,4R*)-2-Methyl-4-(((1r,4R)-4-(4-(4-(4-(((2S,4R)-2-methyl-1-propionyl-1,2,3,4-tetrahydroquinolin-4-yl)amino)phenyl)-1H-pyrazol-1-yl)piperidine-1-carbonyl)cyclohexyl)amino)-3,4-dihydroquinolin-1(2H)-yl)propan-1-one], for which the IC90 is 0.14 nM.

The record behind these values is patent US20220378923A1, “BET DEGRADER” (KYOWA KIRIN CO., LTD., priority 2019, published 2022).
